# Measured values reported in patent publication US9545120B2, “Method of lowering glycemic index of foods” (BASF SE, priority 2002, dated 2017).
# Like-named read-outs stand apart in the source and are kept apart here.
# Experiments:
# [1] = molecular target: T1, Alpha-glucosidase Type 1 from bakers yeast (Saccharomyces cerevisiae, UniProt P53341); assay: Alpha-glucosidase assay; assay type: biochemical; settings: for inhibition at 1600 µM: read-out: % inhibition of alpha-glucosidase at flavonoid concentration 1.6 mM (454 μg/mL); for remaining activity at 7.8 µg/mL / remaining activity at 15.6 µg/mL / remaining activity at 31.3 µg/mL / remaining activity at 62.5 µg/mL / remaining activity at 125 µg/mL / remaining activity at 250 µg/mL / remaining activity at 500 µg/mL: read-out: alpha-glucosidase % control; for inhibition at 7.8 µg/mL / inhibition at 15.6 µg/mL / inhibition at 31.3 µg/mL / inhibition at 62.5 µg/mL / inhibition at 125 µg/mL / inhibition at 250 µg/mL / inhibition at 500 µg/mL: read-out: alpha-glucosidase % inhibition
# T1 construct: purchased Sigma
# T1 sequence (P53341 whole entry): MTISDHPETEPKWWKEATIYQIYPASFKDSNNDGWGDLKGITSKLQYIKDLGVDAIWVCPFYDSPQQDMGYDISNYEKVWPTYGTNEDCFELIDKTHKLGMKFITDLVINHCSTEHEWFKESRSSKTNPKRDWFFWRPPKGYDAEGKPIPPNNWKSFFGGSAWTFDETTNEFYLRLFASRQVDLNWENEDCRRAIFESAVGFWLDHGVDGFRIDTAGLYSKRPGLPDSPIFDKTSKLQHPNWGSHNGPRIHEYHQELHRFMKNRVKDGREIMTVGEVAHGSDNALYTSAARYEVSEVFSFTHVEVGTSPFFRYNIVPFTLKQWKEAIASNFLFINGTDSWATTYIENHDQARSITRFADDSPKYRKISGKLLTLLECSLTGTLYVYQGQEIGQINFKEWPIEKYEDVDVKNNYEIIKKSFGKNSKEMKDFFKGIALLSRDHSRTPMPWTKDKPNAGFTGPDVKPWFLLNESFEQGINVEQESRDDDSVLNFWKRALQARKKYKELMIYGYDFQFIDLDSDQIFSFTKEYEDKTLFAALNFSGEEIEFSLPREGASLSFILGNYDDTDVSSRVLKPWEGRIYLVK
# Description: Alpha-glucosidase Type 1 from bakers yeast, substrate (p-nitrophenyl-alpha-D-glucopyranoside) and a control inhibitor, castanospermine were purchased from Sigma. For the assay, enzyme dissolved in 50 mM acetate buffer, pH 4.5 was incubated for 30 min, at 37° C. in the presence of substrate and in the presence vs. absence of inhibitors (flavonoids or castanospermine at various concentrations). The reaction was carried out in 50 mM acetate buffer, pH 4.5. Final concentration of alpha glucosidase was 0.2 U/ml; final concentration of the substrate was 2 mM. Flavonoids concentrations ranged from 7.8 to 500 μg/ml and castanospermine was used at final concentration 1 μg/ml. The reaction was stopped by addition of 0.2 M Na2CO3 and absorbance was measured at 405 nm. Background absorbance (without enzyme) was subtracted for every flavonoid concentration used. The inhibitory activity was expressed as 100 minus relative absorbance difference between tested samples and controls.
# [2] = molecular target: T2, Alpha-amylase from porcine pancreas (Sus scrofa, UniProt P00690); assay: Alpha-amylase assay; assay type: biochemical; settings: for inhibition at 1600 µM: read-out: % inhibition of alpha-amylase at flavonoid concentration 1.6 mM (454 μg/mL); for remaining activity at 11.7 µg/mL / remaining activity at 23.4 µg/mL / remaining activity at 46.9 µg/mL / remaining activity at 93.8 µg/mL / remaining activity at 187.5 µg/mL / remaining activity at 375 µg/mL / remaining activity at 750 µg/mL: read-out: alpha-amylase % control; for inhibition at 11.7 µg/mL / inhibition at 23.4 µg/mL / inhibition at 46.9 µg/mL / inhibition at 93.8 µg/mL / inhibition at 187.5 µg/mL / inhibition at 375 µg/mL / inhibition at 750 µg/mL: read-out: alpha-amylase % inhibition
# T2 construct: purchased Sigma; host or cells: porcine pancreas
# T2 sequence (P00690 16-511): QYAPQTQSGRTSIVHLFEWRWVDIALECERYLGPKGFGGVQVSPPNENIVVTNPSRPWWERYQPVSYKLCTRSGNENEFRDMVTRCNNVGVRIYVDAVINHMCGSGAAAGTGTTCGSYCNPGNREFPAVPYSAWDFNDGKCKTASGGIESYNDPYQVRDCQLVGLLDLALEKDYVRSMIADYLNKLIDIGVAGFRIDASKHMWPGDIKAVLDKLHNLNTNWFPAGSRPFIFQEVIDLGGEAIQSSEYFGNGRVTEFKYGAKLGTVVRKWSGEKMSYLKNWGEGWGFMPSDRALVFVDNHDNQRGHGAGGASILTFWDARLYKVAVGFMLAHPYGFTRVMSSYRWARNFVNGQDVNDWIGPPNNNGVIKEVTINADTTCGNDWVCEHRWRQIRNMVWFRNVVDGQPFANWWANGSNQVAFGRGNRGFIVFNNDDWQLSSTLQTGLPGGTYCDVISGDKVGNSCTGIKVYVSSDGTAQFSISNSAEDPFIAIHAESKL
# Description: Alpha-amylase from porcine pancreas, alpha-glucosidase, glucoamylase and substrate (p-nitrophenyl-alpha-maltopentaoside) were purchased from Sigma. In the reaction, alpha-amylase (endo-type enzyme) hydrolysed the substrate into shorter chain glucosides and the auxiliary enzymes (exo-type enzymes) released the chromophore (p-nitrophenol) from the amylase-hydrolyzed malto-polysaccharides. For the assay, alpha-amylase (7.5 U/ml) was added to a substrate solution containing 1 mM p-nitrophenyl-alpha-maltopentaoside, 15 U/ml of alpha-glucosidase and 25 U/ml of glucoamylase in 50 mM HEPES buffer (pH 7.3) containing 3 mM CaCl2 and 40 mM NaCl. The reaction was carried out for 15 min at 37° C. in the presence vs. absence of flavonoids at concentrations ranged from 11.7 to 750 μg/ml. At the end of the incubation, 0.2 M borate, pH 9.8 was added to inactivate the enzymes and liberated p-nitrophenol was measured spectrophotometrically at 405 nm. The relative activity of alpha-amylase was calculated by subtracting reaction blanks containing the substrate, the two axillary enzymes and flavonoids at the same concentrations. The inhibitory activity was expressed as 100 minus relative absorbance difference between tested samples and controls.
Compound,IC50 [1] [µM],inhibition at 1600 µM [1] [%],remaining activity at 7.8 µg/mL [1] [%],remaining activity at 31.3 µg/mL [1] [%],remaining activity at 62.5 µg/mL [1] [%],remaining activity at 125 µg/mL [1] [%],remaining activity at 250 µg/mL [1] [%],remaining activity at 500 µg/mL [1] [%],inhibition at 7.8 µg/mL [1] [%],inhibition at 31.3 µg/mL [1] [%],inhibition at 62.5 µg/mL [1] [%],inhibition at 125 µg/mL [1] [%],inhibition at 250 µg/mL [1] [%],inhibition at 500 µg/mL [1] [%],inhibition at 1600 µM [2] [%],remaining activity at 15.6 µg/mL ([1]; flavonoid conc. 15.6 μg/mL) [%],inhibition at 15.6 µg/mL ([1]; flavonoid conc. 15.6 μg/mL) [%],remaining activity at 11.7 µg/mL ([2]; flavonoid conc. 11.7 μg/ml) [%],inhibition at 11.7 µg/mL ([2]; flavonoid conc. 11.7 μg/ml) [%],remaining activity at 23.4 µg/mL ([2]; flavonoid conc. 23.4 μg/ml) [%],other results
"COc1cc(-c2cc(=O)c3c(O)cc(O)cc3o2)cc(OC)c1O [Tricin, tricin]",36.3,100,97.7,15.6,6.4,0,0,0,0.3,84.4,93.6,100,100,100,100,–,–,–,–,–,remaining activity at 15.6 µg/mL [1]: 26.4%; inhibition at 15.6 µg/mL [1]: 73.6%; IC50 [2]: 30 µM; remaining activity at 11.7 µg/mL [2]: 40.9%; remaining activity at 23.4 µg/mL [2]: 18.2%; remaining activity at 46.9 µg/mL [2]: 0%; remaining activity at 93.8 µg/mL [2]: 0%; remaining activity at 187.5 µg/mL [2]: 0%; remaining activity at 375 µg/mL [2]: 0%; remaining activity at 750 µg/mL [2]: 0%; inhibition at 11.7 µg/mL [2]: 59.1%; inhibition at 23.4 µg/mL [2]: 81.8%; inhibition at 46.9 µg/mL [2]: 100%; inhibition at 93.8 µg/mL [2]: 100%; inhibition at 187.5 µg/mL [2]: 100%; inhibition at 375 µg/mL [2]: 100%; inhibition at 750 µg/mL [2]: 100%
"O=c1cc(-c2ccc(O)cc2)oc2cc(O)cc(O)c12 [Apigenin, apigenin]",220,100,73.5,68.4,50.4,29.5,0,0,26.5,31.6,49.6,70.5,100,100,100,74.3,25.7,81,19,0,inhibition at 23.4 µg/mL ([2]; flavonoid conc. 23.4 μg/ml): 100%; remaining activity at 46.9 µg/mL ([2]; flavonoid conc. 46.9 μg/ml): 0%; inhibition at 46.9 µg/mL ([2]; flavonoid conc. 46.9 μg/ml): 100%; remaining activity at 93.8 µg/mL ([2]; flavonoid conc. 93.8 μg/ml): 0%; inhibition at 93.8 µg/mL ([2]; flavonoid conc. 93.8 μg/ml): 100%; remaining activity at 187.5 µg/mL ([2]; flavonoid conc. 187.5 μg/ml): 0%; inhibition at 187.5 µg/mL ([2]; flavonoid conc. 187.5 μg/ml): 100%; remaining activity at 375 µg/mL ([2]; flavonoid conc. 375.0 μg/ml): 0%; inhibition at 375 µg/mL ([2]; flavonoid conc. 375.0 μg/ml): 100%; remaining activity at 750 µg/mL ([2]; flavonoid conc. 750.0 μg/ml): 0%; inhibition at 750 µg/mL ([2]; flavonoid conc. 750.0 μg/ml): 100%
"O[C@H]1[C@H](O)[C@@H](O)CN2CC[C@H](O)[C@H]12 [castanospermine, reference compound]",–,–,–,–,–,–,–,–,–,–,–,–,–,–,–,–,–,–,–,–,"activity of alpha-glucosidase reduced by ([1]; 1 μg/ml, control inhibitor): 32%"
"O=c1cc(-c2ccc(O)c(O)c2)oc2cc(O)cc(O)c12 [Luteolin, luteolin]",–,96,81.4,65.8,45.7,17.9,19.1,0,18.6,34.2,54.3,82.1,80.9,100,100,60.2,39.8,0,100,0,"IC50 ([1]; read-out: IC50 concentration, alpha-glucosidase (converted)): 180 µM; inhibition at 23.4 µg/mL ([2]; flavonoid conc. 23.4 μg/ml): 100%; remaining activity at 46.9 µg/mL ([2]; flavonoid conc. 46.9 μg/ml): 0%; inhibition at 46.9 µg/mL ([2]; flavonoid conc. 46.9 μg/ml): 100%; remaining activity at 93.8 µg/mL ([2]; flavonoid conc. 93.8 μg/ml): 0%; inhibition at 93.8 µg/mL ([2]; flavonoid conc. 93.8 μg/ml): 100%; remaining activity at 187.5 µg/mL ([2]; flavonoid conc. 187.5 μg/ml): 0%; inhibition at 187.5 µg/mL ([2]; flavonoid conc. 187.5 μg/ml): 100%; remaining activity at 375 µg/mL ([2]; flavonoid conc. 375.0 μg/ml): 0%; inhibition at 375 µg/mL ([2]; flavonoid conc. 375.0 μg/ml): 100%; remaining activity at 750 µg/mL ([2]; flavonoid conc. 750.0 μg/ml): 0%; inhibition at 750 µg/mL ([2]; flavonoid conc. 750.0 μg/ml): 100%; inhibition of alpha-amylase at the lowest concentration tested ([2]; lowest concentration tested (11.7 μg/ml)): inhibiting the enzyme completely; IC50 ([2]; read-out: IC50 concentration, alpha-amylase (converted)): 20.3 µM"
